From publication PMC4424274, “Evaluation of [^11C]CB184 for imaging and quantification of TSPO overexpression in a rat model of herpes encephalitis” (European Journal of Nuclear Medicine and Molecular Imaging, 2015)
Several values for one entry are separate records, joined by “and”; a condition that tells them apart may be missing. Equal values may be shown once. Read-outs that look alike come from different tables or passages of the source.

Legend:
[1] = lipophilicity; cited from earlier work
[2] = biological target: T1, TSPO (Rattus norvegicus, UniProt P16257); experiment: Kinetic modelling of PET data (2TCMR, Logan): BPND and VT; type: in vivo
T1 construct: from tissue; host or cells: Brain regions and peripheral organs of male Wistar rats, measured in vivo by PET and ex vivo by gamma counting
Protocol: (§1) PET scans with arterial blood sampling were performed in a different set of rats to generate input for pharmacokinetic modelling. For the arterial blood sampling a cannula was inserted into the femoral artery after induction of anaesthesia. The femoral vein was additionally cannulated for PET tracer injection. After cannulation, the rats were positioned in the camera and a transmission scan was acquired using a ^57Co point source. […] A 0.1 ml blood sample of was taken at 0, 5, 10, 15, 20, 30, 45, 60, 75, 90, 120, 180, 300, 450, 600, 900, 1,800 and 3,600 s after injection. A larger blood sample of 0.5 ml was taken at three time points (5, 15, 30 and/or 60 min) for metabolite analysis. After collection of each blood sample, heparinized saline was injected to prevent large changes in blood pressure. A 25 μl aliquot of whole blood was extracted from each sample for radioactivity measurement. The remainder of each sample was centrifuged at 13,000 rpm (15,996 g) for 8 min, and 25 μl plasma was taken for radioactivity measurement. The radioactivity in blood and plasma was measured with a gamma counter.
The TACs of those rats in which blood sampling was performed, together with their corresponding whole-blood and metabolite-corrected plasma curves, were used for pharmacokinetic modelling using PMOD v3.3 (PMOD Technologies, Zürich, Switzerland). […] The reversible two-tissue compartment model (2TCMR) with K 1/k 2 fixed to the whole cortex value and a fixed blood volume of 3 % were used to calculate the V T and nondisplaceable binding potential (BPND, calculated as k 3/k 4 [29]).

[3] = biological target: TSPO; parameters: method as in PMID 25616581; conditions: cited from earlier work
[4] = system: TSPO; parameters: method as in PMID 25616581; conditions: 6-hydroxydopamine-injured striatum in rats; cited from earlier work
[5] = Radioactive metabolites of [^11C]CB184 in brain; type: in vivo, rat; conditions: 30 min after injection
Protocol: To determine if radioactive metabolites of [^11C]CB184 entered the brain, the brain of one control rat and one HSE rat were isolated 30 min after injection and homogenized with a solution of ice-cold acetonitrile (3 ml). The homogenate was centrifuged at 6,000 rpm (3,461 g) for 10 min. The supernatant was then collected and processed by HPLC, as described above.

[6] = Plasma clearance and plasma metabolite analysis; type: in vivo, rat; conditions: Wistar, rat, in vivo, iv, metabolite-corrected plasma, intravenous injection, rats
Protocol: as §1
Radioactive metabolites in plasma were measured using the extra blood samples taken at three time points during each scan (5, 15, 30 and/or 60 min). After centrifugation and collection of the plasma sample for radioactive measurement, as described above, the remaining plasma was diluted with acetonitrile (1.5 times the amount of plasma) and vortex-mixed. The plasma suspension was centrifuged at 5,300 rpm (3,030 g) for 3 min, and divided into supernatant and pellet. […] Fractions of 30 s were collected and measured in the gamma counter.
The percentage of metabolites in plasma was calculated by fitting an exponential function to the values obtained from the HPLC analysis. The plasma values obtained from the blood samples during the PET scan were then corrected for the presence of these metabolites, and used together with the whole-blood curve for further analysis. Metabolite corrected plasma TACs were fitted for each individual rat using iterative nonlinear least-squares fitting to the biexponential equation: SUVt = Ae^−αt + Be^−βt, where SUVt is the plasma SUV at time t, α and β are the apparent distribution and elimination rate constants (s^−1), respectively, and A and B are the corresponding zero-time intercepts. The weighting factors were the reciprocals of the plasma SUV squared. Distribution and elimination half-lives (seconds) were calculated as the natural logarithm of 2 divided by α and β, respectively.

[7] = control rats (PBS group), k3/k4

Which logP [1] does the source give for `CCCN(CCC)C(=O)Cc1c(-c2ccc(O[11CH3])cc2)nc2c(Cl)cc(Cl)cn12` [[^11C]CB184] here?
The logP was 2.06.

What about the “Binding potential (BPND), Cerebellum” value ([2]; HSE group, k3/k4) of the same compound?
Its value is 3.83 ± 0.63.

What about the “Binding potential (BPND), Frontal cortex” value ([2]; HSE group, k3/k4) of the same compound?
Its value is 3.08 ± 1.20.

What about the “Binding potential (BPND), Hippocampus” value ([2]; HSE group, k3/k4) of the same compound?
The value was 2.44 ± 0.34.

What about the “Binding potential (BPND), Midbrain” value ([2]; HSE group, k3/k4) of the same compound?
The value was 2.50 ± 0.51.

What about the “Binding potential (BPND), Olfactory bulb” value ([2]; HSE group, k3/k4) of the same compound?
Its value is 8.82 ± 2.97.

And the “Binding potential (BPND), Rest cortices” value ([2]; HSE group, k3/k4)?
The value was 2.69 ± 0.47.

What about the “Binding potential (BPND), Striatum” value ([2]; HSE group, k3/k4) of the same compound?
Its value is 1.91 ± 0.41.

And the “Binding potential (BPND), Thalamus” value ([2]; HSE group, k3/k4)?
The value was 1.85 ± 0.41.

And the “Binding potential (BPND), Whole brain” value ([2]; HSE group, k3/k4)?
Its value is 3.25 ± 0.41.

What about the “Binding potential (BPND), Amygdala” value [2, 7] of the same compound?
The value was 2.4 ± 1.2 and 2.39 ± 1.23.

And the “Binding potential (BPND), Cerebellum” value [2, 7]?
Its value is 2.88 ± 1.39.

And the “Binding potential (BPND), Frontal cortex” value [2, 7]?
Its value is 2.14 ± 1.23.

What about the “Binding potential (BPND), Hippocampus” value [2, 7] of the same compound?
Its value is 1.55 ± 0.90.

What about the “Binding potential (BPND), Hypothalamus” value [2, 7] of the same compound?
Its value is 2.7 ± 1.6 and 2.74 ± 1.62.

And the “Binding potential (BPND), Medulla” value [2, 7]?
Its value is 2.6 ± 1.2 and 2.64 ± 1.16.

What about the “Binding potential (BPND), Midbrain” value [2, 7] of the same compound?
Its value is 1.73 ± 0.98.

And the “Binding potential (BPND), Olfactory bulb” value [2, 7]?
The value was 5.56 ± 2.67.

And the “Binding potential (BPND), Pons” value [2, 7]?
The value was 2.6 ± 1.3 and 2.63 ± 1.31.

And the “Binding potential (BPND), Rest cortices” value [2, 7]?
The value was 2.27 ± 1.37.

And the “Binding potential (BPND), Septum” value [2, 7]?
Its value is 1.5 ± 0.9 and 1.53 ± 0.90.

And the “Binding potential (BPND), Striatum” value [2, 7]?
The value was 1.28 ± 0.74.

What about the “Binding potential (BPND), Thalamus” value [2, 7] of the same compound?
Its value is 1.17 ± 0.78.

What about the “Binding potential (BPND), Whole brain” value [2, 7] of the same compound?
Its value is 2.25 ± 1.17.

And the “Increase of BPND in the medulla, HSE rats vs. control rats” value ([2]; medulla)?
Its value is 93%.

And the Ki ([3]; read-out: K i (TSPO affinity))?
Its Ki is 0.54 nM.

What about the “TSPO affinity relative to (R)-[^11C]PK11195” value ([3]; times higher affinity, ratio of K i values) of the same compound?
The value was 7.9 times.

What about the “Inflammation-induced binding as compared with (R)-[^11C]PK11195” value [4] of the same compound?
Its value is “comparable”.

What about the “Percentage of intact tracer present in the brain” value [5] of the same compound?
The value was “approximately 99%”.

And the half-life ([6]; read-out: Distribution half-life in plasma (converted))?
The half-life was 0.283 min.

And the half-life ([6]; read-out: Elimination half-life in plasma)?
The half-life was 44 ± 26 min.
